Measured values from US20030186269A1, “Ssa-56 kda polypeptide and its fragments and polynucleotides encoding said polypeptides and therapeutic uses” (priority 2000, published 2003).

What was measured:
PBMCs = assay: Toxicity (number of live cells) in the same PBMC cultures; format: cell-based, human; conditions: live cells unchanged at start, appear to increase at end of culturing
Excerpt: (§1) Specifically, MB inhibits by 70 to 100% the level of HIV viral protein p24 in the culture supernatants. This effect correlates with the level of expression of viral messenger RNAs (nonspliced and single-spliced).

chemokines = assay: Profile of secreted cytokines and chemokines in PBMC cultures; format: cell-based, human; conditions: PBMC cultures of HIV patients
Excerpt: as §1

[1] = tested on: mRNA encoding the Ro/SSA-like protein; assay: Semiquantitative RT-PCR of the expression of the mRNA encoding Ro/SSA-like in PBMCs; format: cell-based, human
Method: PBMCs from patients (P) infected with HIV or from control healthy donors (C) are isolated, depleted of CD8+ (Dynabeads, Dynal) and stimulated with PHA (5 μg/ml) for 3 days. The cells are then treated or not treated with murabutide (10 μ/ml) in the presence of interleukin 2 (IL2) (10U/ml) in RPMI medium supplemented with 10% fetal calf serum (FCS) for 6 hours or 24 hours in a proportion of a minimum of 5×10^6 cells per condition.
After treatment, the RNA in the cells is extracted (RNAplus, Quantum-bioprobe), then treated with DNase (Boerhinger) and reverse transcribed (RT) using an oligo(dT) in the presence of the Mu-MLV reverse transcriptase (Superscript II, Gibco).
The quality of the RTs is verified by PCR (25 cycles) with primers specific for GAPDH (5′GCCATCAATGACCCCTTCATTGAC 3′) (SEQ ID No. 18) and (5′TGACGAACATGGGGGCATCAGCAG 3′) (SEQ ID No. 19) using 20, 100 and 500 ng of total RNA. The inventors then carried out RT-PCRs (35 cycles) with primers specific for the mRNA encoding Ro/SSA-like, (5′ GAAAGAGAGGTCGCAGAGGCCTGT 3′) (SEQ ID No. 20) and (5′ TGATAAGGCTGAGGAAGGGAAATG 3′) (SEQ ID No. 21). The number of amplification cycles was determined beforehand (35 cycles). The amplified fragments are visualized on agarose gel (1%) in the presence of ethidium bromide, and then quantified using the Imager master program (Pharmacia).
For each dilution, the given value for the gene studied is related to that of the GAPDH (ratio=R). For each patient and each time (6 h or 24 h), the R of the cells treated with murabutide is related to that of the untreated cells. The results are then expressed as % increase or inhibition of expression of the gene relative to the untreated cells. It should be noted that, for each dilution tested, the R can vary slightly; the mean for the Rs was produced by taking care to always be in the linear phase of amplification.

[2] = cited from earlier work
[3] = healthy volunteers and patients suffering from cancer; cited from earlier work
[4] = HIV+ patients, phase I and phase IIa; cited from earlier work
[5] = tested on: human immunodeficiency virus (HIV); conditions: macrophages and dendritic cells, PBMCs of infected patients; cited from earlier work
HIV Nef (HIV) = assay: ELISA on coated recombinant protein, control at 1/100
HIV Tat (HIV) = assay: as above
Helicase = assay: as above
[6] = target: recombinant Ro/SSA-like (SSA-56) protein, complete 485 aa open reading frame, His-tagged, expressed in E. coli (human) (UniProt Q6AZZ1); assay: as above
[7] = target: recombinant SSA-52 protein (human) (UniProt P19474); assay: as above
[8] = target: recombinant SSA-60 protein (UniProt P10155); assay: as above
[9] = target: recombinant SSB-48 protein (UniProt P05455); assay: as above
UniProt P05455, sequence (P05455 whole entry): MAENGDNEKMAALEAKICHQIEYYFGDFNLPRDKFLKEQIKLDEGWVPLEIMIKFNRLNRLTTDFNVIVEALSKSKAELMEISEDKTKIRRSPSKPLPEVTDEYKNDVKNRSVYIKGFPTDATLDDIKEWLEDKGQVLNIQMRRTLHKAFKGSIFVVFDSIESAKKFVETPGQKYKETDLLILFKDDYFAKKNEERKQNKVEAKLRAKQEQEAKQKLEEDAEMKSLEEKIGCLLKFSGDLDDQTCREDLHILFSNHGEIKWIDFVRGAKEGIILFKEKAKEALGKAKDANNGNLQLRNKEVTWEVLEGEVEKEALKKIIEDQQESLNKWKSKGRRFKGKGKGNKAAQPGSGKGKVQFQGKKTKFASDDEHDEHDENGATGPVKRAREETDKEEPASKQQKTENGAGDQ

UniProt P19474, sequence (P19474 whole entry): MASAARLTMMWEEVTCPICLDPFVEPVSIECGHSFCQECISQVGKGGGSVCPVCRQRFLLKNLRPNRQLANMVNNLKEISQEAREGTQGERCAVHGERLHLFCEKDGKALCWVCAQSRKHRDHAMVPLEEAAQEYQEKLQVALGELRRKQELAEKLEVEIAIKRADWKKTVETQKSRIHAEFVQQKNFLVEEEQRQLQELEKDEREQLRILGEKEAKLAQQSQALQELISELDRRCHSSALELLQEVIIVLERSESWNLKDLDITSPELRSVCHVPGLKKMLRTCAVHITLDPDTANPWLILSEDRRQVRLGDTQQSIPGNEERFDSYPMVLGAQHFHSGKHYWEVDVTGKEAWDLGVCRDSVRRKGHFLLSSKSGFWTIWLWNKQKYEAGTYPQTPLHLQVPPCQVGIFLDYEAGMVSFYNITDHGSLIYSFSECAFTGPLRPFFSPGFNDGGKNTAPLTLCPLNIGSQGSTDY
UniProt P10155, sequence (P10155 whole entry): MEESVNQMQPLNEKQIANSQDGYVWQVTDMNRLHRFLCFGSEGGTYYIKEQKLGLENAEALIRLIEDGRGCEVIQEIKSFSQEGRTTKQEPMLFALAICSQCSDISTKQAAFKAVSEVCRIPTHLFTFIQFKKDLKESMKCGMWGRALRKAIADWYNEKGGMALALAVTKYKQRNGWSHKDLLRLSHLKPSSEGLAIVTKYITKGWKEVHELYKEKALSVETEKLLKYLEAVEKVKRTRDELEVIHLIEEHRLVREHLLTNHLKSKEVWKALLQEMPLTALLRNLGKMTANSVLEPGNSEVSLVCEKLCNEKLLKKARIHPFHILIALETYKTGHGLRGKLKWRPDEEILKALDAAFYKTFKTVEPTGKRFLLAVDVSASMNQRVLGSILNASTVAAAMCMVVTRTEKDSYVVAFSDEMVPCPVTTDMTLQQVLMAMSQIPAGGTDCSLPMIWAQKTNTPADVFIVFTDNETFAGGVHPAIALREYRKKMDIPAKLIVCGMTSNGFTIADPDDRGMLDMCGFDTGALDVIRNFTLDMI

**Q.** With `CCCCOC(=O)[C@@H](CCC(N)=O)NC(=O)[C@H](C)NC(=O)[C@@H](C)O[C@H]1[C@H](O)[C@@H](CO)OC(O)[C@@H]1NC(C)=O` (some centres unmarked) [Murabutide] as the molecule, how does the “toxicity, number of live cells” value (PBMCs) read?
**A.** lack of toxicity

**Q.** What about the “induction of chemokines known to be inhibitors of HIV replication” value (chemokines) of the same molecule?
**A.** induces reproduction of chemokines

**Q.** What about the “inhibition of expression of the mRNA encoding Ro/SSA-like” value ([1]; PBMCs from HIV+ patients after stimulation with murabutide) of the same molecule?
**A.** significant inhibition

**Q.** What about the “inhibition of expression of the mRNA encoding Ro/SSA-like relative to untreated cells” value ([1]; PBMCs from HIV+ patients, murabutide 10 μ/ml, 6 h or 24 h, 7 patients/10) of the same molecule?
**A.** more than 40%

**Q.** What about the “inhibition of expression of the mRNA encoding Ro/SSA-like” value ([1]; PBMCs from healthy controls, observed only in 3 cases out of 8) of the same molecule?
**A.** inhibition is weaker

**Q.** And the inflammatory reactions ([2]; in vivo)?
**A.** does not induce inflammatory reactions

**Q.** And the pyrogenicity ([2]; unlike MDP and many other analogs)?
**A.** not pyrogenic

**Q.** What about the “severe toxicity in clinical studies” value [3] of the same molecule?
**A.** has not shown any severe toxicity

**Q.** And the clinical tolerance [4]?
**A.** good clinical tolerance

**Q.** What about the HIV replication [5] of the same molecule?
**A.** inhibits human immunodeficiency virus (HIV) replication

**Q.** For Control SP20, which Absorbance value at 1/100 (HIV Nef (HIV)) is on record?
**A.** 0.056 absorbance

**Q.** And the Absorbance value at 1/100 (HIV Tat (HIV))?
**A.** 0.068 absorbance

**Q.** And the Absorbance value at 1/100 (Helicase)?
**A.** 0.055 absorbance

**Q.** What about the Absorbance value at 1/100 [6] of the same molecule?
**A.** 0.058 absorbance

**Q.** And the Absorbance value at 1/100 [7]?
**A.** 0.059 absorbance

**Q.** What about the Absorbance value at 1/100 [8] of the same molecule?
**A.** 0.068 absorbance

**Q.** What about the Absorbance value at 1/100 [9] of the same molecule?
**A.** 0.051 absorbance
